Common to all, as to assay type: in vivo
One assay relates to Phytophthora infestans. Description: whole plant or invertebrate. The note with it: for control value (Test 1): tomato late blight, control value vs untreated section; for pest or weed control at 4 µg/mL: Phytophthora infestans, in Solanum lycopersicum, 96 h, read-out: control value (Test 1).
Assay [1] relates to Pseudoperonospora cubensis. Description: Test 2: control effect against cucumber downy mildew. The note with it: control value vs untreated section; for pest or weed control at 4 µg/mL: Pseudoperonospora cubensis, 120 h. The method, then:
(§1) A 10% wettable powder created according to the Pharmaceutical Formulation Example 1 was diluted with a Tween20 solution prepared to a concentration of 1/5000, then the compound of formula [1] was prepared to a concentration of 4 ppm. Further, the compound of formula [1] in Test 4 was adjusted to a concentration of 1,000 ppm.
<Test 2 Test of Control Effect Against Cucumber Downy Mildew>
(§2) Test suspension was applied to cucumber at the 2 leaf stage (species: Sagami hanjiro) in an amount of 20 ml per seedling. One day after application, zoospore suspension of Pseudoperonospora cubensis adjusted to a concentration of 1.0×10^4 units/ml was misted/inoculated, and the seedlings were incubated in a moist chamber adjusted to 22° C. for 16 hr. Then, the onset of the disease was induced in the chamber, and the lesion area rate on the leaves 5 days after inoculation was investigated to compute the control value using the formula below. control value={1−onset area rate of the leaves that were applied the test agent/onset area rate of untreated leaves}×100 Computational formula of the control value: […]

The next assay concerns Plasmopara viticola. Put plainly: Test 3: control effect against grape downy mildew. The note with it: control value vs untreated section; for pest or weed control at 4 µg/mL: Plasmopara viticola, 120 h. The method, then:
as §1
<Test 3 Test of Control Effect Against Grape Downy Mildew>
as §2, with “grape seedling” for “cucumber at the 2 leaf stage”, “Neomuscat)” for “Sagami hanjiro)”, “Plasmopara viticola” for “Pseudoperonospora cubensis”

On to `Cc1ccc(OS(C)(=O)=O)c2c1COC(c1csc(C3CCN(C(=O)Cn4nc(C(F)(F)F)cc4C)CC3)n1)OC2` (stereo not drawn) [Compound 1-19], for which, in the assay with Phytophthora infestans, the “control value (Test 1)” value was 100. In addition, the “control value (Test 2)” value in assay [1] is 100. Besides, the “control value (Test 3)” value in the assay on Plasmopara viticola came to 100.
As for `Cc1ccc2c(c1)COC(c1csc(C3CCN(C(=O)Cn4nc(C(F)(F)F)cc4C)CC3)n1)OC2` (stereo not drawn) [Compound 1-20], the “control value (Test 1)” value with Phytophthora infestans is recorded as 100. The “control value (Test 2)” value in assay [1] is reported as 100. In the assay with Plasmopara viticola, the “control value (Test 3)” value came out at 100.
In the case of `COc1ccc(Br)c2c1COC(c1csc(C3CCN(C(=O)Cn4nc(C(F)(F)F)cc4C)CC3)n1)OC2` (stereo not drawn) [Compound 1-24], the “control value (Test 1)” value in the assay on Phytophthora infestans was 100. Moreover, in assay [1], the “control value (Test 2)” value was 100. In addition, in the assay with Plasmopara viticola, the “control value (Test 3)” value is 100.
As for `CCCCCCCCS(=O)(=O)Oc1cccc2c1COC(c1csc(C3CCN(C(=O)Cn4nc(C(F)(F)F)cc4C)CC3)n1)OC2` (stereo not drawn) [Compound 1-25], the “control value (Test 1)” value in the assay on Phytophthora infestans amounted to 100. The “control value (Test 2)” value in assay [1] stood at 100. For the same compound, in the assay with Plasmopara viticola, the “control value (Test 3)” value is 100.
Turning to `COc1ccc(OS(C)(=O)=O)c2c1COC(c1csc(C3CCN(C(=O)Cn4nc(C(F)(F)F)cc4C)CC3)n1)OC2` (stereo not drawn) [Compound 1-26], the “control value (Test 1)” value in the assay on Phytophthora infestans came out at 100. Further, the “control value (Test 2)” value in assay [1] is reported as 100. Besides, the “control value (Test 3)” value in the assay on Plasmopara viticola was 100.
In the case of `Cc1cc(C(F)(F)F)nn1CC(=O)N1CCC(c2nc(C3OCc4ccc([N+](=O)[O-])cc4CO3)cs2)CC1` (stereo not drawn) [Compound 1-27], in the assay on Phytophthora infestans, the “control value (Test 1)” value is on record as 100. For the same compound, in assay [1], the “control value (Test 2)” value is 100. Moreover, the “control value (Test 3)” value with Plasmopara viticola stood at 100.
In the case of `Cc1cc(C(F)(F)F)nn1CC(=O)N1CCC(c2nc(C3OCc4cccc(OS(=O)(=O)C(C)C)c4CO3)cs2)CC1` (stereo not drawn) [Compound 1-28], the “control value (Test 1)” value in the assay on Phytophthora infestans is on record as 100. Further, in assay [1], the “control value (Test 2)” value was determined as 100. Also, in the assay with Plasmopara viticola, the “control value (Test 3)” value amounted to 100.
As for `CCS(=O)(=O)Oc1ccc2c(c1)COC(c1csc(C3CCN(C(=O)Cn4nc(C(F)(F)F)cc4C)CC3)n1)OC2` (stereo not drawn) [Compound 1-29], the “control value (Test 1)” value with Phytophthora infestans turned out to be 100. Also, in assay [1], the “control value (Test 2)” value is recorded as 90. For the same compound, the “control value (Test 3)” value with Plasmopara viticola worked out at 100.
Turning to `Cc1cc(C(F)(F)F)nn1CC(=O)N1CCC(c2nc(C3OCc4cccc(OS(=O)(=O)CCC(F)(F)F)c4CO3)cs2)CC1` (stereo not drawn) [Compound 1-30], in the assay with Phytophthora infestans, the “control value (Test 1)” value worked out at 100. Moreover, in assay [1], the “control value (Test 2)” value is listed as 100. Further, the “control value (Test 3)” value in the assay with Plasmopara viticola worked out at 100.
On to `Cc1cc(C(F)(F)F)nn1CC(=O)N1CCC(c2nc(C3OCc4cc5c(cc4CO3)CCC5)cs2)CC1` [Compound 1-31], for which the “control value (Test 1)” value in the assay with Phytophthora infestans came out at 100. The “control value (Test 2)” value in assay [1] is recorded as 100. Also, the “control value (Test 3)” value with Plasmopara viticola was 100.
As for `O=C(Cn1nc(C(F)F)cc1C(F)F)N1CCC(c2nc(C3OCc4cccc(F)c4CO3)cs2)CC1` (stereo not drawn) [Compound 1-35], in the assay with Phytophthora infestans, the “control value (Test 1)” value is given as 100. Further, the “control value (Test 2)” value in assay [1] worked out at 100. Further, the “control value (Test 3)” value in the assay with Plasmopara viticola was determined as 100.
As to `COC(=O)Oc1cccc2c1COC(c1csc(C3CCN(C(=O)Cn4nc(C(F)(F)F)cc4C)CC3)n1)OC2` (stereo not drawn) [Compound 1-37], in the assay with Phytophthora infestans, the “control value (Test 1)” value is on record as 100. The “control value (Test 2)” value in assay [1] came to 100. In addition, the “control value (Test 3)” value in the assay on Plasmopara viticola was 100.
For the compound `CS(=O)(=O)Oc1cccc2c1COC(c1csc(C3CCN(C(=O)Cn4nc(C(F)F)cc4C(F)F)CC3)n1)OC2` (stereo not drawn) [Compound 1-38, 4-[4-(6-methylsulfonyloxy-1,5-dihydro-3H-2,4-benzodioxepin-3-yl)-2-thiazolyl]-1-[2-[3,5-bis(difluoromethyl)-1H-pyrazole-1-yl]acetyl]piperidine], the pest or weed control at 4 µg/mL (in the assay with Phytophthora infestans; in assay [1]; in the assay on Plasmopara viticola) was 100% each time.
For the compound `COc1ccc(OS(C)(=O)=O)c2c1COC(c1csc(C3CCN(C(=O)Cn4nc(C(F)F)cc4C(F)F)CC3)n1)OC2` (stereo not drawn) [Compound 1-39, 4-[4-(6-methoxy-9-methylsulfonyloxy-1,5-dihydro-3H-2,4-benzodioxepin-3-yl)-2-thiazolyl]-1-[2-[3,5-bis(difluoromethyl)-1H-pyrazole-1-yl]acetyl]piperidine], the pest or weed control at 4 µg/mL (in the assay with Phytophthora infestans; in assay [1]; in the assay with Plasmopara viticola) was 100% in each case.
Consider `O=C(Cn1nc(C(F)(F)F)cc1C(F)(F)F)N1CCC(c2nc(C3OCc4cccc(F)c4CO3)cs2)CC1` (stereo not drawn) [Compound 1-41], for which, in the assay with Phytophthora infestans, the “control value (Test 1)” value is 100. Also, the “control value (Test 2)” value in assay [1] was 100. In addition, the “control value (Test 3)” value in the assay on Plasmopara viticola is 100.
Take `CS(=O)(=O)Oc1cccc2c1COC(c1csc(C3CCN(C(=O)Cn4nc(C(F)(F)F)cc4C(F)(F)F)CC3)n1)OC2` (stereo not drawn) [Compound 1-42, 4-[4-(6-methylsulfonyloxy-1,5-dihydro-3H-2,4-benzodioxepin-3-yl)-2-thiazolyl]-1-[2-[3,5-bis(trifluoromethyl)-1H-pyrazole-1-yl]acetyl]piperidine]: the pest or weed control at 4 µg/mL (with Phytophthora infestans; in assay [1]; with Plasmopara viticola) was 100% each time.
On to `Cc1cc(C(F)(F)F)nn1CC(=O)N1CCC(c2nc(C3OCc4cccc(NS(C)(=O)=O)c4CO3)cs2)CC1` (stereo not drawn) [Compound 1-43], for which the “control value (Test 1)” value with Phytophthora infestans was 80. In assay [1], the “control value (Test 2)” value worked out at 100. In the assay with Plasmopara viticola, the “control value (Test 3)” value is 100.
With `COc1ccc([N+](=O)[O-])c2c1COC(c1csc(C3CCN(C(=O)Cn4nc(C(F)(F)F)cc4C)CC3)n1)OC2` (stereo not drawn) [Compound 1-46], the “control value (Test 1)” value in the assay on Phytophthora infestans was 100. Also, the “control value (Test 2)” value in assay [1] stood at 100. Besides, the “control value (Test 3)” value with Plasmopara viticola stood at 100.
With `Cc1cc(C(F)(F)F)nn1CC(=O)N1CCC(c2nc(C3OCc4cccc(OS(=O)(=O)c5ccccc5)c4CO3)cs2)CC1` (stereo not drawn) [Compound 1-48], the “control value (Test 1)” value with Phytophthora infestans came to 100. The “control value (Test 2)” value in assay [1] stood at 100. For the same compound, the “control value (Test 3)” value in the assay with Plasmopara viticola amounted to 100.
On to `Cc1cc(C(F)(F)F)nn1CC(=O)N1CCC(c2nc(C3OCc4cccc(CO)c4CO3)cs2)CC1` (stereo not drawn) [Compound 1-52], for which the “control value (Test 1)” value in the assay with Phytophthora infestans is 100. For the same compound, the “control value (Test 2)” value in assay [1] amounted to 100. Moreover, the “control value (Test 3)” value in the assay on Plasmopara viticola is on record as 100.
For `CC(C)S(=O)(=O)Oc1cccc2c1COC(c1csc(C3CCN(C(=O)Cn4nc(C(F)F)cc4C(F)F)CC3)n1)OC2` (stereo not drawn) [Compound 1-53], the “control value (Test 1)” value in the assay on Phytophthora infestans turned out to be 100. Moreover, the “control value (Test 2)” value in assay [1] turned out to be 100. Further, the “control value (Test 3)” value with Plasmopara viticola is listed as 100.
On to `CCCCS(=O)(=O)Oc1cccc2c1COC(c1csc(C3CCN(C(=O)Cn4nc(C(F)F)cc4C(F)F)CC3)n1)OC2` (stereo not drawn) [Compound 1-54], for which the “control value (Test 1)” value in the assay with Phytophthora infestans is 100. Moreover, the “control value (Test 2)” value in assay [1] came out at 100. The “control value (Test 3)” value in the assay on Plasmopara viticola turned out to be 100.
As for `O=C(Cn1nc(C(F)F)cc1C(F)F)N1CCC(c2nc(C3OCc4c(F)c(F)c(F)c(F)c4CO3)cs2)CC1` [Compound 1-55], in the assay on Phytophthora infestans, the “control value (Test 1)” value is 100. Also, in assay [1], the “control value (Test 2)” value was determined as 100. Further, the “control value (Test 3)” value with Plasmopara viticola is listed as 100.
Take `Cc1cc(C(F)(F)F)nn1CC(=O)N1CCC(c2nc(C3OCc4cccc(-c5ccccc5)c4CO3)cs2)CC1` (stereo not drawn) [Compound 1-56]: the “control value (Test 1)” value with Phytophthora infestans worked out at 90. Further, the “control value (Test 2)” value in assay [1] came to 100. Further, the “control value (Test 3)” value in the assay with Plasmopara viticola is reported as 100.

(Values after US10104891B2 (priority 2014, dated 2018).)
